Results taken from EP4635944A1, “2-AZABICYCLO[3.1.1]HEPTANE COMPOUND” (Daiichi Sankyo Company, Limited, priority 2022, dated 2024).

What was measured:
human OX2R = target: T1, human OX2R (Homo sapiens, UniProt O43614); assay: Evaluation of OX2R agonist activity (intracellular calcium, CHO-K1 cells with forced expression of human OX2R); type: cell-based; conditions: CHO-K1 cells expressing human OX2R; 100% = 5 µM of the reference compound; read-out: hOX2R EC50
T1 construct: host or cells: CHO-K1 (Chinese Hamster Ovary K1)
T1 sequence (O43614 1-444): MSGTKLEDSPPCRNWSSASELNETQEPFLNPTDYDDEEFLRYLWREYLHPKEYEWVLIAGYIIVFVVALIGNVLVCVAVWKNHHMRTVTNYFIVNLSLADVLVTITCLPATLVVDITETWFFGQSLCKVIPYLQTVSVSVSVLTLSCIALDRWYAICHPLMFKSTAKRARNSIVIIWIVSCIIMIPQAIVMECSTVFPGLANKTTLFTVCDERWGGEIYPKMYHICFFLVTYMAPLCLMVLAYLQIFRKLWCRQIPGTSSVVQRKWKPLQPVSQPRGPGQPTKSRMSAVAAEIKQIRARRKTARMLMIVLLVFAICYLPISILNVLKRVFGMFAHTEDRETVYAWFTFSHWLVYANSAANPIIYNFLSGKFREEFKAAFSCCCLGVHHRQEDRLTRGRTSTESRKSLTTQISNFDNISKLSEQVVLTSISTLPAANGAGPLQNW
Outline: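 Cells seeded 7500/well, cultured 24 h, loaded with Fluo 4-AM (2.5 µg/mL final) plus probenecid for 30 min. Calcium response read as 480/540 nm excitation ratio; max–min signal 5–7 s after compound addition, normalized to buffer (0%) and 5 µM reference agonist (100%). EC50 from concentration series; 0.5% DMSO final.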

male C57BL/6J mice = assay: Acceleration of locomotor activity (arousal effect in mice); type: in vivo; conditions: 10 mg/kg of body weight, orally; cumulative counts for one hour after administration; solvent administration group = 100%
Procedure: Acceleration of locomotor activity
Acceleration of locomotor activity in rodents can be an indicator of arousal. An experiment was carried out on the arousal effect of the test compound in mice, using the acceleration of locomotor activity as the indicator. For the experiment, male C57BL/6J mice (6 weeks old, THE JACKSON LABORATORY JAPAN, INC., 6 to 8 animals per group) were used. Mice were allowed to acclimate for 1 hour or longer in the rearing cage in the room where the measurement was to be performed, until the experiment. After the acclimation, the mice were placed in a locomotor activity measuring apparatus (the behavior analyzer SCANET-40 series, Melquest Ltd.) equipped with an infrared sensor to start the measurement. After 2 hours, either the solvent or the test compound (10 mg/kg of body weight) was orally administered, and the mice were immediately returned to the measuring apparatus and the measurement was further performed for 2 hours. The test compound was suspended in the 0.5 w/v% methylcellulose 400 solution (Wako Pure Chemical Industries, Ltd., Japan). The locomotor activity was counted every 5 minutes, and the cumulative counts for one hour after administration were calculated for each treatment group. The proportion of the locomotor activity of the test compound administration group to the solvent administration group whose locomotor activity was defined as 100% was calculated and shown in Table 2.

[1] = Evaluation of metabolic stability in human liver microsomes; type: in vitro ADME; conditions: for metabolic stability compared to the corresponding compounds that were not deuterated: human liver microsomes, 30 minutes, deuterated at specific positions; for Human metabolic stability Residual ratio (%): test compound 1 µM, human liver microsomes 0.5 mg/mL, 30 minutes at 37°C
Procedure: Evaluation of metabolic stability of OX2R agonist
The test compound (final concentration was 1 µM, dissolved in DMSO/acetonitrile = 1/99), pooled human liver microsomes (final concentration was 0.5 mg/mL), and sodium phosphate buffer (pH 7.4, final concentration was 100 mM) were admixed and preincubated at 37°C for 15 minutes. Thereafter, a mixed solution of glucose-6-phosphate (final concentration was 10 mM), glucose-6-phosphate dehydrogenase (final concentration was 1 U/mL), and magnesium chloride (final concentration was 3.3 mM) was added and a certain amount of the mixture was collected. Then, an acetonitrile/methanol mixed solution (75/25, v/v) containing a 4.5-fold volume of internal standard substances (final concentrations: phenacetin: 1 ng/mL, niflumic acid: 15 ng/mL, furosemide: 20 ng/mL) was added to stop the reaction (0 min sample). Subsequently, β-nicotinamide adenine dinucleotide phosphate (final concentration was 1 mM) was added, and after 30 minutes of incubation at 37°C, a certain amount of the mixture was collected, to which an acetonitrile/methanol mixed solution (75/25, v/v) containing a 4.5-fold volume of the internal standard substances was added to stop the reaction (30 min sample). For both samples, a portion of the supernatant after centrifugation (about 1200 × g, 4°C, 15 minutes) was injected into a liquid chromatograph tandem quadrupole mass spectrometer (LC-MS/MS) for analysis. The metabolic stability was evaluated by comparing the test compound/internal standard substance ratio of the 30 min sample with the 0 min sample and calculating the residual ratio of the test compound. […]

[2] = Evaluation of ERM production (GSH adduct detection in human liver microsomes); type: in vitro ADME; conditions: test compound 500 µM, human liver microsomes 2 mg/mL, GSH/SI-GSH, 37°C for 60 minutes; negative = no metabolite GSH adduct pair peak
Procedure: Evaluation of ERM production from OX2R agonist
The test compound (final concentration was 500 µM, dissolved in DMSO/acetonitrile = 1/9), pooled human liver microsomes (final concentration was 2 mg/mL), L-glutathione reduced (GSH, final concentration was 0.5 mM), potassium phosphate buffer (pH 7.4, final concentration was 100 mM), and stable isotope labeled GSH (SI-GSH, final concentration was 0.5 mM) were admixed and preincubated at 37°C for 3 minutes. Thereafter, a mixed solution of glucose-6-phosphate (final concentration was 25 mM), β-nicotinamide adenine dinucleotide phosphate (final concentration was 0.25 mM), glucose-6-phosphate dehydrogenase (final concentration was 2 U/mL), and magnesium chloride (final concentration was 10 mM) was added, and incubation was performed at 37°C for 60 minutes. After the incubation, the reaction was stopped by adding a 2-fold volume of acetonitrile. A portion of the supernatant after centrifugation (about 1200 × g, 4°C, 15 minutes) was injected into a liquid chromatograph quadrupole time-of-flight mass spectrometer (Q-Tof) for analysis. The mass number of metabolites, GSH adduct and SI-GSH adduct, predicted from the chemical structural formula of the test compound was calculated, and the presence of the corresponding peaks in the measurement sample was checked. Peaks with the same retention time and approximately equal peak area of the detected peaks of the metabolites, GSH adduct and SI-GSH adduct, were extracted as pair peaks. The presence of a pair peak determined to be a metabolite GSH adduct was considered positive for ERM production potential, whereas the absence of such a peak was considered negative for ERM production potential.

Compound	EC50 (human OX2R) [nM]	Locomotor activity (%) (male C57BL/6J mice)	metabolic stability compared to the corresponding compounds that were not deuterated [1]	Human metabolic stability Residual ratio (%) [1] [%]	ERM production potential [2]
[2H]C([2H])([2H])[C@@]([2H])(O)C(=O)N1C2CC(F)(C2)[C@H](NS(C)(=O)=O)[C@@H]1Cc1cc(F)cc(-c2ccccc2)c1F [Example 87, N-{(3S,4R)-3-[(2,5-Difluoro[biphenyl]-3-yl)methyl]-5-fluoro-2-[(2R)-2-hydroxy(^2H4)propanoyl]-2-azabicyclo[3.1.1]heptan-4-yl}methanesulfonamide]	30	221	improved metabolic stability	70	
[2H][C@](C)(O)C(=O)N1C2CC(C2)[C@H](NS(C)(=O)=O)[C@@H]1Cc1cc(F)cc(-c2ccccc2)c1F [Example 98, N-{(3S,4S)-3-[(2,5-Difluoro[biphenyl]-3-yl)methyl]-2-[(2R)-2-hydroxy(2-^2H)propanoyl]-2-azabicyclo[3.1.1]heptan-4-yl}methanesulfonamide]	36	281	improved metabolic stability	58	negative
[2H][C@](C)(O)C(=O)N1C2CC(C2)[C@H](NS(C)(=O)=O)[C@@H]1Cc1cccc(-c2ccccc2)c1F [Example 97, N-{(3S,4S)-3-[(2-Fluoro[biphenyl]-3-yl)methyl]-2-[(2R)-2-hydroxy(2-^2H)propanoyl]-2-azabicyclo[3.1.1]heptan-4-yl}methanesulfonamide]	21	601	improved metabolic stability	57	negative
[2H]C([2H])([2H])[C@@]([2H])(O)C(=O)N1C2CC(F)(C2)[C@H](NS(C)(=O)=O)[C@@H]1Cc1cccc(-c2ccccc2)c1F [Example 89, N-{(3S,4R)-5-Fluoro-3-[(2-fluoro[biphenyl]-3-yl)methyl]-2-[(2R)-2-hydroxy(^2H4)propanoyl]-2-azabicyclo[3.1.1]heptan-4-yl}methanesulfonamide]	18	412	improved metabolic stability	75	
